Reference: ChEMBL document CHEMBL4680314, “Discovery of potent glycogen synthase kinase 3/cholinesterase inhibitors with neuroprotection as potential therapeutic agent for Alzheimer's disease” (Bioorg Med Chem, 2021)
Calls of active or inactive are those of the source. The calls are words filed in the database; no cut-off is given here.

What was measured:
[1] = Half life in Sprague-Dawley rat at 5 mg/kg, iv measured upto 24 hrs by LC-MS/MS analysis; type: ADME, organism-based; conditions: in vivo
[2] = Drug uptake in mouse BV-2 cells at 25 uM incubated for 1 hr measured per million cells by LC-MS/MS analysis; type: ADME, cell-based; conditions: bv-2, 1 h
[3] = species on record: Homo sapiens; assay: Selectivity index, ratio of IC50 for p38MAPK delta (unknown origin) to IC50 for GSK-3 beta (unknown origin) by ATP competitive based analysis
[4] = tested on: BV-2; assay: Anti-inflammatory activity in mouse BV-2 cells assessed as reduction in LPS-induced TNFalpha production incubated for 1 hr followed by LPS stimulation and measured after 24 hrs by ELISA; type: functional, cell-based; conditions: dose 2-8 µM, time 25.0 hrs
[5] = target: Acetylcholinesterase (Homo sapiens, UniProt P22303); assay: Inhibition of human recombinant AChE expressed in HEK293 cells using acetylthiocholine iodide as substrate incubated for 10 mins by Ellman's method; type: cell-based
[6] = species on record: Homo sapiens; assay: Selectivity index, ratio of IC50 for CDK6 (unknown origin) to IC50 for GSK-3 beta (unknown origin) by ATP competitive based analysis
[7] = target: Cyclin-dependent kinase 6 (Homo sapiens, UniProt Q00534); assay: Inhibition of CDK6 (unknown origin) by ATP competitive based analysis
[8] = AUC (0 to infinity) in Sprague-Dawley rat at 5 mg/kg, iv by LC-MS/MS analysis; type: ADME, organism-based; parameters: route intravenous, dose 5 mg/kg; conditions: in vivo
[9] = Cmax in Sprague-Dawley rat at 10 mg/kg, po measured upto 24 hrs by LC-MS/MS analysis; type: ADME, organism-based; parameters: route oral, dose 10 mg/kg, time <=24; conditions: in vivo
[10] = Oral bioavailability in Sprague-Dawley rat at 10 mg/kg measured upto 24 hrs by LC-MS/MS analysis; type: ADME, organism-based; conditions: in vivo
[11] = target: Cyclin-dependent kinase 2 (Homo sapiens, UniProt P24941); assay: Inhibition of CDK2 (unknown origin) by ATP competitive based analysis
[12] = tested on: BV-2; assay: Anti-inflammatory activity in mouse BV-2 cells assessed as reduction in LPS-induced ROS production at 3 uM incubated for 1 hr followed by LPS stimulation and measured after 24 hrs by DCFH-DA staining based inverted fluorescence microscopy; type: functional, cell-based; conditions: time 25.0 hrs
[13] = target: Glycogen synthase kinase-3 beta (Mus musculus) (UniProt Q9WV60); assay: Inhibition of GSK3beta in mouse N2a cells overexpressing human tau assessed as tau phosphorylation at Ser396 residue at 0.22 uM incubated for 6 hrs by Western blot analysis (reference value: […] %); type: cell-based; parameters: scale not given: the % may be the effect or the level left
[14] = Clearance in Sprague-Dawley rat at 10 mg/kg, po measured upto 24 hrs by LC-MS/MS analysis; type: ADME, organism-based; conditions: in vivo
[15] = tested on: BV-2; assay: Cytotoxicity against mouse BV-2 cells assessed as effect on cell morphology; type: cell-based
[16] = target: Dual specificity tyrosine-phosphorylation-regulated kinase 1B (Homo sapiens, UniProt Q9Y463); assay: Inhibition of DYRK1B (unknown origin) by ATP competitive based analysis
[17] = species on record: Homo sapiens; assay: Selectivity index, ratio of IC50 for CDK4 (unknown origin) to IC50 for GSK-3 beta (unknown origin) by ATP competitive based analysis
[18] = Plasma concentration in ICR mouse at 15 mg/kg, po measured after 90 mins by LC-MS/MS analysis; type: ADME, organism-based
[19] = target: Mitogen-activated protein kinase 1 (Homo sapiens, UniProt P28482); assay: Inhibition of ERK2 (unknown origin) by ATP competitive based analysis
[20] = target: Cyclin-dependent kinase 1 (Homo sapiens, UniProt P06493); assay: Inhibition of CDK1 (unknown origin) by ATP competitive based analysis
[21] = species on record: Homo sapiens; assay: Selectivity index, ratio of IC50 for p38MAPK gamma (unknown origin) to IC50 for GSK-3 beta (unknown origin) by ATP competitive based analysis
[22] = target: Mitogen-activated protein kinase 3 (Homo sapiens, UniProt P27361); assay: Inhibition of ERK1 (unknown origin) by ATP competitive based analysis
[23] = Toxicity in ICR mouse assessed as reduction in body weight at 15 mg/kg, po; type: organism-based; conditions: in vivo
[24] = species on record: Homo sapiens; assay: Selectivity index, ratio of IC50 for p38MAPK alpha (unknown origin) to IC50 for GSK-3 beta (unknown origin) by ATP competitive based analysis
[25] = target: Glycogen synthase kinase-3 beta (Mus musculus) (UniProt Q9WV60); assay: Inhibition of GSK3beta in mouse N2a cells overexpressing human tau assessed as reduction in tau phosphorylation at Ser396 residue at 6 uM incubated for 6 hrs by Western blot analysis relative to control; type: cell-based
[26] = species on record: Homo sapiens; assay: Selectivity index, ratio of IC50 for p38MAPK beta (unknown origin) to IC50 for GSK-3 beta (unknown origin) by ATP competitive based analysis
[27] = AUC (0 to 24 hrs) in Sprague-Dawley rat at 10 mg/kg, po measured upto 24 hrs by LC-MS/MS analysis; type: ADME, organism-based; parameters: route oral, dose 10 mg/kg, time <=24; conditions: in vivo
[28] = Volume of distribution in Sprague-Dawley rat at 5 mg/kg, iv measured upto 24 hrs by LC-MS/MS analysis; type: ADME, organism-based; conditions: in vivo
[29] = MRT (0 to t) in Sprague-Dawley rat at 10 mg/kg, po measured upto 24 hrs by LC-MS/MS analysis; type: ADME, organism-based; conditions: in vivo
[30] = in vitro; conditions: PAMPA
Description: Effective permeability of compound in PBS/EtOH buffer (7:3) at 25 ug/ml incubated for 18 hrs by PAMPA-BBB assay

[31] = target: Cholinesterase (Homo sapiens, UniProt P06276); assay: Inhibition of human BChE using butyrylthiocholineiodide as substrate incubated for 10 mins by Ellman's method
[32] = target: Mitogen-activated protein kinase 9 (Homo sapiens, UniProt P45984); assay: Inhibition of JNK2 (unknown origin) by ATP competitive based analysis
[33] = target: Cyclin-dependent kinase 7 (Homo sapiens, UniProt P50613); assay: Inhibition of CDK7 (unknown origin) by ATP competitive based analysis
[34] = tested on: N2a; assay: Effect on tau protein level in mouse N2a cells overexpressing human tau at 0.074 to 6 uM incubated for 6 hrs by Western blot analysis; type: functional, cell-based; conditions: dose 0.074-6 µM
[35] = species on record: Homo sapiens; assay: Selectivity index, ratio of IC50 for […] IC50 for GSK-3 beta (unknown origin) by ATP competitive based analysis
[36] = target: Glycogen synthase kinase-3 beta (Homo sapiens, UniProt P49841); assay: Inhibition of GSK3beta (unknown origin) by ATP competitive based analysis
[37] = Tmax in Sprague-Dawley rat at 5 mg/kg, iv measured upto 24 hrs by LC-MS/MS analysis; type: ADME, organism-based; conditions: in vivo

Chain of Glycogen synthase kinase-3 beta (Mus musculus) (Q9WV60 whole entry, looked up): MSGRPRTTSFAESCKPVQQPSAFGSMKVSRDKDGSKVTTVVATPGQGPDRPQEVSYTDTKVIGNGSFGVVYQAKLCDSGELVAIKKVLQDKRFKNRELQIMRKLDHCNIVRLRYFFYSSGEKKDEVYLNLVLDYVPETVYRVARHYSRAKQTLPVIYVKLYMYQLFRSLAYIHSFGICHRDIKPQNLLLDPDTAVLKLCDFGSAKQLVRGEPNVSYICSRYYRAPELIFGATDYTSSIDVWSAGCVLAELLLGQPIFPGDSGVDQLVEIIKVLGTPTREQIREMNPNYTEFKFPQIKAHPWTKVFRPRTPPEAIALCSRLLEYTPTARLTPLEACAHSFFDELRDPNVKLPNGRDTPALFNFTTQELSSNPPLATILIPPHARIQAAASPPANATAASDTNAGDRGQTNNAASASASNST
Chain of Cyclin-dependent kinase 7 (P50613 whole entry): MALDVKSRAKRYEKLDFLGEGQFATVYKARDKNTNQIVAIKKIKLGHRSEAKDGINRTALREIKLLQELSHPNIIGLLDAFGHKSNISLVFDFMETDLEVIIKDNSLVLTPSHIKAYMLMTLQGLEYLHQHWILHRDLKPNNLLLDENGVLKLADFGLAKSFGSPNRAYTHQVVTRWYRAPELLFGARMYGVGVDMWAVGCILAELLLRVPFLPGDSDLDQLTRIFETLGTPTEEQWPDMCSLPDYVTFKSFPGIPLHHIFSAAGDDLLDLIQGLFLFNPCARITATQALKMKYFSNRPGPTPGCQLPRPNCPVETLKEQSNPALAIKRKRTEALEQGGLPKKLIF
Chain of Mitogen-activated protein kinase 9 (P45984 whole entry): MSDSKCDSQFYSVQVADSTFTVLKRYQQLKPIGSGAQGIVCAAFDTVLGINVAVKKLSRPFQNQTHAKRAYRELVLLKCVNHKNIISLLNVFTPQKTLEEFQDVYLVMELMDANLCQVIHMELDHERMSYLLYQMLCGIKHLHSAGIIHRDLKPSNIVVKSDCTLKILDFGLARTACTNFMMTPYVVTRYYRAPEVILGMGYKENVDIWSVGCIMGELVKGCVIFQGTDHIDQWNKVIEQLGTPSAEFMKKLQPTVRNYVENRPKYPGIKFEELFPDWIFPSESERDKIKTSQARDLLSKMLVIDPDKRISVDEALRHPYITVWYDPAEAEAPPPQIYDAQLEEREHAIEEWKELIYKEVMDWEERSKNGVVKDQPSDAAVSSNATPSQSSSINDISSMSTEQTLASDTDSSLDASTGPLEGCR
Chain of Cyclin-dependent kinase 6 (Q00534 whole entry): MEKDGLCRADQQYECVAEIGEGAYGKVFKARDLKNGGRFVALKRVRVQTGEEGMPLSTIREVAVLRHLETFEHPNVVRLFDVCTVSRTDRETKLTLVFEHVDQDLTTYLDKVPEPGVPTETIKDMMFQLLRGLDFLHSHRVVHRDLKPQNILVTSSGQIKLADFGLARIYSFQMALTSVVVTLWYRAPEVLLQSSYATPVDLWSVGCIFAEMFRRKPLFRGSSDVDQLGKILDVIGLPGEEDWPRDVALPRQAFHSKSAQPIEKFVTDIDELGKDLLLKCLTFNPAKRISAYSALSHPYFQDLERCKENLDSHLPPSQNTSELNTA
Chain of Mitogen-activated protein kinase 1 (P28482 whole entry): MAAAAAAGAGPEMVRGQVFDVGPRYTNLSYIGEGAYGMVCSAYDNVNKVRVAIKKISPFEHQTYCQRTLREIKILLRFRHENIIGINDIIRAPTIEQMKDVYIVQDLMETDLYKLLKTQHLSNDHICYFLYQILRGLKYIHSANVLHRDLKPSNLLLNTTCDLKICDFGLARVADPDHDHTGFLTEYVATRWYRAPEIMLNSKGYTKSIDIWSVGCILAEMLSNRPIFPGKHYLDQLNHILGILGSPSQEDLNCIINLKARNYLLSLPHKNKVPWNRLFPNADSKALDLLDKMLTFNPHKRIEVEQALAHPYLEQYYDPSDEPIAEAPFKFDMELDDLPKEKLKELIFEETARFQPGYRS
Chain of Mitogen-activated protein kinase 3 (P27361 whole entry): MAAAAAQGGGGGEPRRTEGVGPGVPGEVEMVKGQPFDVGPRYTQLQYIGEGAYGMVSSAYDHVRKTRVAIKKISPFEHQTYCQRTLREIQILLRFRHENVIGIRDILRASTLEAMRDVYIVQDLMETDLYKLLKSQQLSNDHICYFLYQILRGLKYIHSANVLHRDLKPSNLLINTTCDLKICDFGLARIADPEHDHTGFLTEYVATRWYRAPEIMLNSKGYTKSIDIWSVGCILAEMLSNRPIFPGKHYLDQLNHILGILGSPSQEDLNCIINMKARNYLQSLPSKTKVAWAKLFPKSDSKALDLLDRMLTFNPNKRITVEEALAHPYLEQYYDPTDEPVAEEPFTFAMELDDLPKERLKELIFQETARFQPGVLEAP
Chain of Cholinesterase (P06276 whole entry): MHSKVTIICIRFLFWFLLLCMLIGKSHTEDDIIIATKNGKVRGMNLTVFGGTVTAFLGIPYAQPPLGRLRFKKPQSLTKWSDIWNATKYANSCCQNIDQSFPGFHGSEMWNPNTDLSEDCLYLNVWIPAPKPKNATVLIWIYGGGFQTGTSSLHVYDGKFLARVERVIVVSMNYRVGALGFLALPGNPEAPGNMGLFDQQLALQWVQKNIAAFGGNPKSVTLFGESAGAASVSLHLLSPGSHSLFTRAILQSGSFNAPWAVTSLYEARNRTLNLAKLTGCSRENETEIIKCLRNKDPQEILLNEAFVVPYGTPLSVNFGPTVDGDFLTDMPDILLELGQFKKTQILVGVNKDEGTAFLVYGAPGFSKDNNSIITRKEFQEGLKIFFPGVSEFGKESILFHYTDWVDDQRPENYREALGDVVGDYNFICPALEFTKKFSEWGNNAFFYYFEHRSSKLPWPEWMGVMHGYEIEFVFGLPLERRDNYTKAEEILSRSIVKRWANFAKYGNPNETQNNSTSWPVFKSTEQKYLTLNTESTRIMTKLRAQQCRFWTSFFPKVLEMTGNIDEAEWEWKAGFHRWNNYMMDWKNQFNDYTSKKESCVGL
Chain of Glycogen synthase kinase-3 beta (P49841 whole entry): as the sequence (Q9WV60 whole entry, looked up) above, with P390T, A392T, T400A, A402T counted along it
Chain of Acetylcholinesterase (P22303 whole entry): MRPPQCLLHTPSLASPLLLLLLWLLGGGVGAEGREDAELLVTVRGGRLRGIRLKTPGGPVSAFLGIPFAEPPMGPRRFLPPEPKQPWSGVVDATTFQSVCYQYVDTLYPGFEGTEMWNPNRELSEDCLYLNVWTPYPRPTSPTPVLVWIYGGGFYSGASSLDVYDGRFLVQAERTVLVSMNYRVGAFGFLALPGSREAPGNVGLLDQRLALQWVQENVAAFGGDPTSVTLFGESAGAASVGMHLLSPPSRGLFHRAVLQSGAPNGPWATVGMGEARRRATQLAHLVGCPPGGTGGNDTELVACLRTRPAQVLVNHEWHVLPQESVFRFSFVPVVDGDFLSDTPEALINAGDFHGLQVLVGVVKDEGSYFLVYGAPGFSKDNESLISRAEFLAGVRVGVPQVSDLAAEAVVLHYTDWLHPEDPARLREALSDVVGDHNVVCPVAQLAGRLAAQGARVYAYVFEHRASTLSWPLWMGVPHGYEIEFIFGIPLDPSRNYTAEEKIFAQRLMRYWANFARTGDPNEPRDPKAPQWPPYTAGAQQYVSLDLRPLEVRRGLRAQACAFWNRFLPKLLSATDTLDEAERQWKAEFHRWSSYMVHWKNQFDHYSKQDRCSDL
Chain of Dual specificity tyrosine-phosphorylation-regulated kinase 1B (Q9Y463 whole entry): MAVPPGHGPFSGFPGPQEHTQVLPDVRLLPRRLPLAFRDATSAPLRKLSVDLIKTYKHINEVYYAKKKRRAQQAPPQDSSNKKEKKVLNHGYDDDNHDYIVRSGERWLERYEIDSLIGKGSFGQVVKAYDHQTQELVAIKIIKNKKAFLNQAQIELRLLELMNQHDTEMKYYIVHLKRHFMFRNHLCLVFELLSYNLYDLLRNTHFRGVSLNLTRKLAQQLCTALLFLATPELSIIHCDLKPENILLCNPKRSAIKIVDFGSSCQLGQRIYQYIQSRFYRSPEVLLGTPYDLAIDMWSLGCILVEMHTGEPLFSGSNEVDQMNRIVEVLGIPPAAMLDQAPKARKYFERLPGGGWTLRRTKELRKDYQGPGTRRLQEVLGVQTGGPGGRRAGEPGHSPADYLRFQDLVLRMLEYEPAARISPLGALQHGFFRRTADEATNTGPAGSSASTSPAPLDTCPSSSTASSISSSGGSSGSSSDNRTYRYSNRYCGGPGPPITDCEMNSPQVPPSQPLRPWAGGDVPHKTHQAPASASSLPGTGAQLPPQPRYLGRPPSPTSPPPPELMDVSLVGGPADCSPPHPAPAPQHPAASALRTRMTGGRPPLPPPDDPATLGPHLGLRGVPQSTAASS
Chain of Cyclin-dependent kinase 1 (P06493 whole entry): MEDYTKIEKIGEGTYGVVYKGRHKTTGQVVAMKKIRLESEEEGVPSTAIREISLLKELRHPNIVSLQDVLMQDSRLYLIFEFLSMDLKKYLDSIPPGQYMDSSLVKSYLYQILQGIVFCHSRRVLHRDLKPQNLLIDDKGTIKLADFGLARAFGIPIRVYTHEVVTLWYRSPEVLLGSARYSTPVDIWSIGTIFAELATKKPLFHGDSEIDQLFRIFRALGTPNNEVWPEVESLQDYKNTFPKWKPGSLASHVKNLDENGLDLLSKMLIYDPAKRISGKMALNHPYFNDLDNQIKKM

NC(=O)c1sc(-c2ccnc(NC(=O)C3CC3)c2)nc1OCCCC1CCN(Cc2ccc(F)cc2)CC1
half-life [1]: 4.3 h
Drug uptake [2]: 722 ng
Ratio IC50 [3]: 200
Activity [4]: Dose-dependent effect
IC50 [5]: 310 nM
Ratio IC50 [6]: 200
IC50 [7]: > 300 nM
AUC(0-inf) [8]: 1980 ng·h/mL
Cmax [9]: 132 ng/mL
bioavailability [10]: 30.3%
IC50 [11]: > 300 nM
Activity [12]: Active
Activity [13]: 63.3%
CL/F [14]: 112 mL/min/kg
Activity [15]: Non-Toxic
IC50 [16]: 37.8 nM
Ratio IC50 [17]: 200
concentration at 1.5 h [18]: 265 ng/mL
IC50 [19]: > 300 nM
IC50 [20]: > 300 nM
Ratio IC50 [21]: 200
IC50 [22]: > 300 nM
Activity [23]: Non-Toxic
Ratio IC50 [24]: 200
Imax [25]: 93%
Ratio IC50 [26]: 200
AUC(0-t) [27]: 1160 ng·h/mL
Vd [28]: 15.8 L/kg
MRT last at 24 h [29]: 9.9 h
Papp at 18 h, 25 ug/ml [30]: 8.4 ×10⁻⁶ cm/s
IC50 [31]: 3410 nM
IC50 [32]: > 300 nM
IC50 [33]: > 300 nM
Activity [34]: inactive
Ratio IC50 [35]: 200
IC50 [36]: 16.1 nM
Tmax [37]: 4.98 min
